One data set deals with factor Xa, human (Homo sapiens, UniProt P00742). Briefly: Inhibition of factor Xa. The format is biochemical. The source says: The inhibition of factor Xa by the compounds according to the invention and the measurement of the anticoagulant and antithrombotic activity can be determined by conventional in-vitro or in-vivo methods. A suitable method is described, for example, by J. Hauptmann et al. in Thrombosis and Haemostasis 1990, 63, 220-223.
The inhibition of factor Xa can be measured, for example, by the method of T. Hara et al. in Thromb. Haemostas. 1994, 71, 314-319.

For another data set, the target named is TF/VIIa (Homo sapiens, UniProt P08709). Description: Inhibition of TF/VIIa. The format is biochemical. The source says:
The inhibition of factor VIIa by the compounds according to the invention and the measurement of the anticoagulant and antithrombotic activity can be determined by conventional in-vitro or in-vivo methods. A conventional method for the measurement of the inhibition of factor VIIa is described, for example, by H. F. Ronning et al. in Thrombosis Research 1996, 84, 73-81.

TF/VIIa, sequence (P08709 213-466 limits assumed): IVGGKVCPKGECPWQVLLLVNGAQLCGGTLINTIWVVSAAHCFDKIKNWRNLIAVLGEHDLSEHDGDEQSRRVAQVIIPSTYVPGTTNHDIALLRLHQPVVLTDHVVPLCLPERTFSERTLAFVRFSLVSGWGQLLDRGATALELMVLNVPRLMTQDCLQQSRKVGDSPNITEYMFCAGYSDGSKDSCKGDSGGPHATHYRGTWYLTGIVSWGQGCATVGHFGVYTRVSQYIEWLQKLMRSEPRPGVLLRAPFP
TF/VIIa, sequence (P08709 61-212 limits assumed): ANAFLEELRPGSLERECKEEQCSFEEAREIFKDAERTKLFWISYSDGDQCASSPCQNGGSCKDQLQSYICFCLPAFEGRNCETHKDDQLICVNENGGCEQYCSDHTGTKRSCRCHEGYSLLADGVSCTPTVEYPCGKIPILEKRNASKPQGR
TF/VIIa, sequence (P13726 33-295 partner): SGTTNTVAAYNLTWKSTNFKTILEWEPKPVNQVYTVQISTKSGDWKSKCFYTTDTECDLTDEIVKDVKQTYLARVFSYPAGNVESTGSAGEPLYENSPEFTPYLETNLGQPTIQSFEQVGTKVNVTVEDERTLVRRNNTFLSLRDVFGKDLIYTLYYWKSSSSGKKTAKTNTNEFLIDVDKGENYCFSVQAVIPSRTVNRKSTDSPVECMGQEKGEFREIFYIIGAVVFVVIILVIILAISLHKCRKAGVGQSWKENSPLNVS
factor Xa, human, sequence (P00742 235-488 limits assumed): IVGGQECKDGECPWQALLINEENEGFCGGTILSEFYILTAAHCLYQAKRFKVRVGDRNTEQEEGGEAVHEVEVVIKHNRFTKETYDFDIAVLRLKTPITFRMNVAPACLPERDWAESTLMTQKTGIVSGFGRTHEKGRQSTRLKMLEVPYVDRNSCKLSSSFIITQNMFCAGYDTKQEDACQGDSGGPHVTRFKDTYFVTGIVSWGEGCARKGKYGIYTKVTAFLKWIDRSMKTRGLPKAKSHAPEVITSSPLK
factor Xa, human, sequence (P00742 41-179 limits assumed): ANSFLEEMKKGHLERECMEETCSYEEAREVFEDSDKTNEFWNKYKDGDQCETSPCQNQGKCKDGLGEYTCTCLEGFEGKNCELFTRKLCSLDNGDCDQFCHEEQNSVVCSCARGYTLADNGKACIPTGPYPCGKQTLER

`CCCN(Cc1cccc(C(=N)N)c1)C(=O)Oc1ccc(-c2ccccc2S(N)(=O)=O)cc1` [Example 2.3, 2′-aminosulfonylbiphenyl-4-yl (3-amidinobenzyl)propylcarbamate] had a melting point of 119 to 120 °C. Moreover, the IC50 against factor Xa, human is 450 nM. The same molecule had an IC50 against TF/VIIa of 350 nM.

As to `CCCN(Cc1cccc(C(=N)N)c1)C(=O)Oc1ccc(-c2ccccc2S(C)(=O)=O)cc1` [Example 3.3, 2′-methylsulfonylbiphenyl-4-yl (3-amidinobenzyl)propylcarbamate], the IC50 against factor Xa, human came out at 340 nM; against TF/VIIa, 130 nM.

These data come from US20030199698A1, “Carbamic acid esters as inhibitors of factor xa” (priority 2000, published 2003).
